SMILES strings stand for the structures. Where a name gives a salt, the structure may show the parent alone.

Data set [1] concerns the target T1, recombinant human plasminogen activator inhibitor-1 (PAI-1) (Homo sapiens, UniProt P05121).
T1 construct: purchased Molecular Innovations, Royal Oak, Mich
As to the kind of experiment: Primary Screen for the PAI-1 Inhibition. The format is biochemical. The conditions noted are these: for IC50: footnote b: determined by a modification of the Primary Screen for PAI-1 Inhibition; for inhibition at 25 µM: 25 μM test compound. The protocol: Test compounds are dissolved in DMSO at a final concentration of 10 mM, then diluted 100× in physiologic buffer. The inhibitory assay is initiated by the addition of the test compound (1-100 μM final concentration, maximum DMSO concentration of 0.2%) in a pH 6.6 buffer containing 140 nM recombinant human plasminogen activator inhibitor-1 (PAI-1; Molecular Innovations, Royal Oak, Mich.). Following a 1 hour incubation at room temperature, 70 nM of recombinant human tissue plasminogen activator (tPA) is added, and the combination of the test compound, PAI-1 and tPA is incubated for an additional 30 minutes. Following the second incubation, Spectrozyme-tPA (American Diagnostica, Greenwich, Conn.), a chromogenic substrate for tPA, is added and absorbance read at 405 nm at 0 and 60 minutes. Relative PAI-1 inhibition is equal to the residual tPA activity in the presence of the test compound and PAI-1. Control treatments include the complete inhibition of tPA by PAI-1 at the molar ratio employed (2:1), and the absence of any effect of the test compound on tPA alone.

A further data set concerns the target human PAI-1 (Homo sapiens, UniProt P05121). As to the kind of experiment: Assay for Determining IC50 of Inhibition of PAI-1 (Antibody Assay). Type of data set: binding. The conditions noted are these: footnote a: determined by the Antibody Assay. The protocol: This assay is based upon the non-SDS dissociable interaction between tPA and active PAI-1. Assay plates are initially coated with human tPA (10 μg/ml). Test compounds are dissolved in DMSO at 10 mM, then diluted with physiologic buffer (pH 7.5) to a final concentration of 1-50 μM. Test compounds are incubated with human PAI-1 (50 ng/ml) for 15 minutes at room temperature. The tPA-coated plate is washed with a solution of 0.05% Tween 20 and 0.1% BSA, then the plate is blocked with a solution of 3% BSA. An aliquot of the test compound/PAI-1 solution is then added to the tPA-coated plate, incubated at room temperature for 1 hour, and washed. Active PAI-1 bound to the plate is assessed by adding an aliquot of a 1:1000 dilution of the 33B8 monoclonal antibody against human PAI-1, and incubating the plate at room temperature for 1 hour (Molecular Innovations, Royal Oak, Mich.). […] The plate is incubated 45 minutes at room temperature, and color development is determined at OD405 nm. The quantitation of active PAI-1 bound to tPA at varying concentrations of test compound is used to determine the IC50. Results are analyzed using a logarithmic best-fit equation. The assay sensitivity is 5 ng/ml of human PAI-1 as determined from a standard curve ranging from 0-100 ng/ml.

T1 sequence (P05121 24-402): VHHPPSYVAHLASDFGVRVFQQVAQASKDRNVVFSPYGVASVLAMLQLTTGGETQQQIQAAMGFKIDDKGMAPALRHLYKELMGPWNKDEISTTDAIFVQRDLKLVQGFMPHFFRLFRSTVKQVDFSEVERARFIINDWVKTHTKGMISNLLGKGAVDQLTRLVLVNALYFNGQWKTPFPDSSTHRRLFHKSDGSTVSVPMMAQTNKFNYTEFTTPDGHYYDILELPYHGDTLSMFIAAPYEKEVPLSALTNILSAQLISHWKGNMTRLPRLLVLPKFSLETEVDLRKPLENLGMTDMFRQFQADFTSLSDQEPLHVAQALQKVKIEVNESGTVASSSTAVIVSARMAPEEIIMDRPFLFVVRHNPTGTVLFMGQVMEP
Chain of human PAI-1 (P05121 24-402): as above

For `CCCCCc1c(-c2ccc(OCc3nnn[nH]3)c3ncccc23)oc2ccccc12` [Compound 5, 5-(3-Pentyl-1-benzofuran-2-yl)-8-(1H-tetraazol-5-ylmethoxy)quinoline], the IC50 (as a rule, the point on the concentration scale where inhibition reaches its midpoint) in data set [1] is 8.1 µM.
Take `c1ccc2oc(-c3ccc(OCc4nnn[nH]4)c4ncccc34)cc2c1` [Compound 3, 5-(1-Benzofuran-2-yl)-8-(1H-tetraazol-5-ylmethoxy)quinoline]: in data set [1], the inhibition – broadly, how much of the control response was suppressed – at 25 µM amounted to 20%.
On the same count and under the same terms, the figure for `c1ccc(-c2c(-c3ccc(OCc4nnn[nH]4)c4ncccc34)oc3ccccc23)cc1` [Compound 4, 5-(3-Phenyl-1-benzofuran-2-yl)-8-quinolinyl 1H-tetraazol-5-ylmethyl ether] is 55%.
`FC(F)(F)c1cc(OCc2nnn[nH]2)c2cc(-c3cc4ccccc4o3)ccc2n1` [Compound 1, 6-(1-Benzofuran-2-yl)-2-(trifluoromethyl)quinolin-4-yl 1H-tetraazol-5-ylmethyl ether]: the melting point (as a rule, the temperature of the solid-liquid transition) was > 225 °C (dec.). For the same compound, in data set [1], the IC50 amounted to 38.6 µM.
On to `c1ccc(-c2c(-c3ccc(OCc4nnn[nH]4)c4ncccc34)oc3ccccc23)cc1` (as salt: salt) [Compound 4, 5-(3-Phenyl-1-benzofuran-2-yl)-8-quinolinyl 1H-tetraazol-5-ylmethyl ether], for which the melting point was > 273 °C (dec.).
Turning to `CCCCCc1c(-c2ccc(OCc3nnn[nH]3)c3ncccc23)oc2ccccc12` (as salt: salt) [Compound 5, 5-(3-Pentyl-1-benzofuran-2-yl)-8-(1H-tetraazol-5-ylmethoxy)quinoline], the melting point is 226 to 228 °C (dec.).
On the same count and under the same terms, the figure for `c1ccc2oc(-c3ccc(OCc4nnn[nH]4)c4ncccc34)cc2c1` (as salt: salt) [Compound 3, 5-(1-Benzofuran-2-yl)-8-(1H-tetraazol-5-ylmethoxy)quinoline] is > 240 °C (dec.).
For `CCCCCc1c(-c2ccc3nc(C(F)(F)F)cc(OCc4nnn[nH]4)c3c2)oc2ccccc12` [Compound 2, 6-(3-Pentyl-1-benzofuran-2-yl)-4-(1H-tetraazol-5-ylmethoxy)-2-(trifluoromethyl)-quinoline], the melting point was 207 to 209 °C (dec.). Further, half-maximal inhibition against human PAI-1 (IC50) required 21.5 µM.

Values taken from US7446201B2, “Substituted heteroaryl benzofuran acids” (Wyeth, priority 2003, dated 2008).
